Results reported in patent publication US5972678A, “Animal 2-5A dependent RNases” (Cleveland Clinic Foundation, priority 1995, dated 1999).

Legend:
Type in all cases: binding
[1] = system: murine 2-5A-dependent RNase (truncated recombinant clone ZB1 and murine L cell enzyme); test: UV covalent crosslinking of 32P-2-5A probe with unlabeled oligonucleotide competitors, murine enzyme; details: for concentration that prevents 2-5A probe binding: 32P-2-5A probe 2.4 nM, both recombinant (ZB1) and naturally occurring murine protein; for competition with 2-5A probe binding: competitor 100 nM, recombinant 74 kDa protein (clone ZB1) from wheat germ extract, similar profile with murine L929 cell enzyme
Procedure: FIG. 2A is a specific affinity of truncated murine 2-5A-dependent RNase for 2-5A. UV covalent crosslinking of the ^32 P-2-5A probe (lanes 1-7) to protein is performed after translation reactions in wheat germ extract (5 μl) with murine 2-5A-dependent RNase mRNA (from clone ZB1) (lanes 1-3) or without added RNA (lane 4) or in extract of interferon treated mouse L cells (100 μg of protein) (lanes 5-7). Reactions are without added competitor (lanes 1, 4, and 5) or in the presence of either trimer core. […] Lanes 8 and 9 are produced by incubating the wheat germ extract with ^35 S-methionine in the absence or presence of 2-5A-dependent RNase mRNA, respectively.
Autoradiograms of the dried SDS/10% polyacrylamide gels are shown. Concentrations of the oligonucleotide competitors are indicated. I is inosine.
To obtain recombinant protein for characterization, the cDNA is transcribed and translated in cell-free systems. See Example. 2-5A binding activity is then determined by covalently crosslinking the 2-5A probe to the protein with uv light, for example, Nolan-Sorden, N. L. et al., Anal. Biochem., 184: 298-304 (1990). […] See FIG. 2A, lanes 2 and 3, respectively. There is no detectable 2-5A binding proteins in the wheat germ extract as shown in the incubation without added RNA, FIG. 2A, lane 4. For comparison, a similar profile of 2-5A binding activity is obtained for the 80 kDa 2-5A-dependentRNase from murine L929 cells, incubated without added oligonucleotide or with (A2'p)2 A or p3 (A2'p)2 A as competitors. In a further comparison, covalent linkage of the 2-5A probe to the about 74 kDa protein and to murine L929 cell 2-5A-dependent RNase followed by partial digestion with chymotrypsin produces an identical pattern of six labeled peptides. Similarly, partial digestion of the two labeled proteins with S. aureus V8 protease also produces identical patterns of labeled cleavage products.
The 2-5A binding functions of the recombinant and naturally occurring forms of murine 2-5A-dependent RNase are characterized by covalent crosslinking to the 2-5A probe in the presence of unlabeled 2-5A or 2-5A analogues as competitors. […] In comparison, a 500-fold higher concentration of (A2'p)2 A (10 μM) is required to prevent probe binding to both proteins. See lane 13. The dimer species, p3 A2'pA, is unable to prevent the 2-5A probe from binding to the proteins even at a concentration of 10 μM (lane 18). However, the inosine analogue, p3 I2'pA2'pA, Imai, J. et al., J. Biol. Chem., 260: 1390-1393 (1985), is able to prevent probe binding to both proteins but only when added at a concentration of about 1.0 μM (lane 22).
The synthesis of the 2-5A probe, p(A2'p)2 (br^8 A2'p)2 A[32P]Cp, and its crosslinking to 2-5A-dependent RNase is performed exactly as described. See Nolan-Sorden, N. L. et al., Anal. Biochem., 184: 298-304 (1990). Briefly, the 2-5A probe, about 0.7 to 2.5 nM at […], is incubated for about one hour on ice with cell extract prepared as described, Silverman, R. H. and Krause, D., Lymphokines and Interferons: A Practical Approach, I.R.L. Press, Oxford. England, pp. 149-193 (1987), in the absence or presence of unlabeled oligonucleotide competitors. Covalent crosslinking is done under a uv lamp (308 nm) for one hour on ice and the proteins are separated on SDS/10% polyacrylamide gels. Filter assays for 2-5A binding activity using the 2-5A probe for about one hour on ice, as described in Knight, M. et al., Nature, 288: 189-192 (1980).

[2] = system: human 2-5A-dependent RNase (recombinant and HeLa cell enzyme); test: UV covalent crosslinking of 2-5A probe with unlabeled competitors, human enzyme; details: competitor 100 nM; recombinant human enzyme from wheat germ extract; same pattern with interferon-treated HeLa cell extract
Procedure: FIG. 5A is specific affinity of recombinant human 2-5A-dependent RNase for 2-5A. Crosslinking of the 2-5A probe (lanes 1-7) to protein is performed after translation reactions in wheat germ extract (5 μl) with human 2-5A-dependent RNase mRNA (lanes 1-3) or without added RNA (lane 4) or in extract of human interferon a treated (1000 units per ml for 16 h) human HeLa cells (350 μg of protein) (lanes 5-7). […] Incubations with ^35 S-methionine are shown in lanes 8 to 12. Lane 8 is with wheat germ extract and human 2-5A-dependent RNase mRNA. Reticulocyte lysate preadsorbed to 2-5A-cellulose is incubated with human 2-5A-dependent RNase MRNA in the absence (lane 9) or presence (lane 10) of cycloheximide, or in the absence of added mRNA (lane 11). […] The positions and relative molecular masses (in kDa) of the marker proteins are indicated.
The 2-5A binding properties of the recombinant and naturally occurring forms of human 2-5A-dependent RNase are compared by uv covalent crosslinking to the 2-5A probe. […] Radiolabeling of the cloned human 2-5A-dependent RNase with the 2-5A probe is not prevented by (A2'p)2 A. See FIG. 5A, lanes 1 and 2. […] See lane 3. The same pattern of 2-5A binding activity is obtained with 2-5A-dependent RNase in an extract of interferon-treated human HeLa cells. […]

[3] = system: 2-5A probe, Br-2-5A-[32P]pCp

**Q.** For (A2'p)2 A, which “concentration that prevents 2-5A probe binding” value [1] is on record?
**A.** 10 µM

**Q.** And the “competition with 2-5A probe binding” value [1]?
**A.** fails to interfere with binding of the protein to the 2-5A probe

**Q.** And the “competition with 2-5A probe binding” value [2]?
**A.** not prevented

**Q.** Which results are given for p3 (A2'p)2 A?
**A.** concentration that prevents 2-5A probe binding [1]: about 20 nM; competition with 2-5A probe binding [1]: completely prevents probe binding; competition with 2-5A probe binding [2]: effectively competes with the 2-5A probe

**Q.** For p3 A2'pA, which “concentration that prevents 2-5A probe binding” value [1] is on record?
**A.** > 10 µM

**Q.** p3 I2'pA2'pA was tested. Which “concentration that prevents 2-5A probe binding” value [1] did it give?
**A.** about 1.0 μM

B1: Clone ZB1: truncated recombinant murine 2-5A-dependent RNase, amino acids 1-656 in Table II (protein, UniProt Q05921 1-656, looked up, fragment)
chain: METPDYNTPQGGTPSAGSQRTVVEDDSSLIKAVQKGDVVRVQQLLEKGADANACEDTWGWTPLHNAVQAGRVDIVNLLLSHGADPHRRKKNGATPFIIAGIQGDVKLLEILLSCGADVNECDENGFTAFMEAAERGNAEALRFLFAKGANVNLRRQTTKDKRRLKQGGATALMSAAEKGHLEVLRILLNDMKAEVDARDNMGRNALIRTLLNWDCENVEEITSILIQHGADVNVRGERGKTPLIAAVERKHTGLVQMLLSREGINIDARDNEGKTALLIAVDKQLKEIVQLLLEKGADKCDDLVWIARRNHDYHLVKLLLPYVANPDTDPPAGDWSPHSSRWGTALKSLHSMTRPMIGKLKIFIHDDYKIAGTSEGAVYLGIYDNREVAVKVFRENSPRGCKEVSCLRDCGDHSNLVAFYGREDDKGCLYVCVSLCEWTLEEFLRLPREEPVENGEDKFAHSILLSIFEGVQKLHLHGYSHQDLQPQNILIDSKKAVRLADFDQSIRWMGESQMVRRDLEDLGRLVLYVVMKGEIPFETLKTQNDEVLLTMSPDEETKDLIHCLFSPGENVKNCLVDLLGHPFFWTWENRYRTLRNVGNESDIKVRKCKSDLLRLLQHQTLEPPRSFDQWTSKIDKNVMDEMNHFYEKRKKNPYQD
**Q.** Which “2-5A binding activity compared with naturally occurring enzyme (in words)” value ([3]; uv crosslinking to 2-5A probe with competitors, protein missing about 84 carboxy-terminal amino acids) does the source give for B1 here?
**A.** indistinguishable from that of naturally occurring 2-5A-dependentRNase

B2: Clone ZB1 (Lys^240,274 →Asn): double mutant of clone ZB1, lysines 240 and 274 replaced with asparagine (protein, UniProt Q05921 1-656, looked up, variant K240N K274N)
chain: METPDYNTPQGGTPSAGSQRTVVEDDSSLIKAVQKGDVVRVQQLLEKGADANACEDTWGWTPLHNAVQAGRVDIVNLLLSHGADPHRRKKNGATPFIIAGIQGDVKLLEILLSCGADVNECDENGFTAFMEAAERGNAEALRFLFAKGANVNLRRQTTKDKRRLKQGGATALMSAAEKGHLEVLRILLNDMKAEVDARDNMGRNALIRTLLNWDCENVEEITSILIQHGADVNVRGERGNTPLIAAVERKHTGLVQMLLSREGINIDARDNEGNTALLIAVDKQLKEIVQLLLEKGADKCDDLVWIARRNHDYHLVKLLLPYVANPDTDPPAGDWSPHSSRWGTALKSLHSMTRPMIGKLKIFIHDDYKIAGTSEGAVYLGIYDNREVAVKVFRENSPRGCKEVSCLRDCGDHSNLVAFYGREDDKGCLYVCVSLCEWTLEEFLRLPREEPVENGEDKFAHSILLSIFEGVQKLHLHGYSHQDLQPQNILIDSKKAVRLADFDQSIRWMGESQMVRRDLEDLGRLVLYVVMKGEIPFETLKTQNDEVLLTMSPDEETKDLIHCLFSPGENVKNCLVDLLGHPFFWTWENRYRTLRNVGNESDIKVRKCKSDLLRLLQHQTLEPPRSFDQWTSKIDKNVMDEMNHFYEKRKKNPYQD
**Q.** For B2, which “2-5A binding activity, % of the activity of clone ZB1” value ([3]; uv crosslinking, phosphorimager analysis of dried gel, wheat germ extract translation products) is on record?
**A.** 12.2%
